In brackets after ≈: the same amount, converted by molar mass. Read-outs that look alike come from different tables or passages of the source.
Legend:
[1] = tested on: carbapenemase-producing Enterobacteriaceae (CPE); assay: MIC in human urine and CAMHB at pH 5.0 to 8.0 (Example 13, Tables 29, 30); conditions: Klebsiella pneumoniae
Porphyromonas spp. = assay: MIC, agar dilution, anaerobic bacteria (Example 9, Tables 19, 24); type: cell-based; conditions: (n)=Compound A µg/mL, 0=Compound A alone antibacterial

C[C@@H](O)[C@H]1C(=O)N2C(C(=O)O)=C(S[C@@H]3CN[C@H](C(=O)N(C)C)C3)[C@H](C)[C@H]12 [MEPM, meropenem]
MIC ([1]; ATCCBAA2344, pH 5, read-out: MICs of MEPM, K. pneumoniae ATCC BAA-2344 (KPC-2), CAMHB pH5.0): 8 µg/mL (≈ 20.9 µM)
MIC ([1]; ATCCBAA2344, pH 5, read-out: MICs of MEPM, K. pneumoniae ATCC BAA-2344 (KPC-2), Human urine pH5.0): 2 µg/mL (≈ 5.22 µM)
MIC ([1]; ATCCBAA2344, pH 6, read-out: MICs of MEPM, K. pneumoniae ATCC BAA-2344 (KPC-2), CAMHB pH6.0): 32 µg/mL (≈ 83.4 µM)
MIC ([1]; ATCCBAA2344, pH 6, read-out: MICs of MEPM, K. pneumoniae ATCC BAA-2344 (KPC-2), Human urine pH6.0): 8 µg/mL (≈ 20.9 µM)
MIC ([1]; ATCCBAA2344, pH 7, read-out: MICs of MEPM, K. pneumoniae ATCC BAA-2344 (KPC-2), Human urine pH7.0): 32 µg/mL (≈ 83.4 µM)
MIC ([1]; ATCCBAA2344, pH 7.2, read-out: MICs of MEPM, K. pneumoniae ATCC BAA-2344 (KPC-2), Standard condition (CAMHB pH7.2)): 32 µg/mL (≈ 83.4 µM)
MIC ([1]; ATCCBAA2344, pH 8, read-out: MICs of MEPM, K. pneumoniae ATCC BAA-2344 (KPC-2), CAMHB pH8.0): 32 µg/mL (≈ 83.4 µM)
MIC ([1]; ATCCBAA2344, pH 8, read-out: MICs of MEPM, K. pneumoniae ATCC BAA-2344 (KPC-2), Human urine pH8.0): 32 µg/mL (≈ 83.4 µM)
MIC ([1]; ATCCBAA2470, pH 5, read-out: MICs of MEPM, K. pneumoniae ATCC BAA-2470 (NDM-1), CAMHB pH5.0): 0.12 µg/mL (≈ 0.313 µM)
MIC ([1]; ATCCBAA2470, pH 5, read-out: MICs of MEPM, K. pneumoniae ATCC BAA-2470 (NDM-1), Human urine pH5.0): 0.12 µg/mL (≈ 0.313 µM)
MIC ([1]; ATCCBAA2470, pH 6, read-out: MICs of MEPM, K. pneumoniae ATCC BAA-2470 (NDM-1), CAMHB pH6.0): 8 µg/mL (≈ 20.9 µM)
MIC ([1]; ATCCBAA2470, pH 6, read-out: MICs of MEPM, K. pneumoniae ATCC BAA-2470 (NDM-1), Human urine pH6.0): 0.12 µg/mL (≈ 0.313 µM)
MIC ([1]; ATCCBAA2470, pH 7, read-out: MICs of MEPM, K. pneumoniae ATCC BAA-2470 (NDM-1), Human urine pH7.0): 16 µg/mL (≈ 41.7 µM)
MIC ([1]; ATCCBAA2470, pH 7.2, read-out: MICs of MEPM, K. pneumoniae ATCC BAA-2470 (NDM-1), Standard condition (CAMHB pH7.2)): 16 µg/mL (≈ 41.7 µM)
MIC ([1]; ATCCBAA2470, pH 8, read-out: MICs of MEPM, K. pneumoniae ATCC BAA-2470 (NDM-1), CAMHB pH8.0): 64 µg/mL (≈ 167 µM)
MIC ([1]; ATCCBAA2470, pH 8, read-out: MICs of MEPM, K. pneumoniae ATCC BAA-2470 (NDM-1), Human urine pH8.0): 8 µg/mL (≈ 20.9 µM)
MIC ([1]; ATCCBAA2524, pH 5, read-out: MICs of MEPM, K. pneumoniae ATCC BAA-2524 (OXA-48), CAMHB pH5.0): 0.25 µg/mL (≈ 0.652 µM)
MIC ([1]; ATCCBAA2524, pH 5, read-out: MICs of MEPM, K. pneumoniae ATCC BAA-2524 (OXA-48), Human urine pH5.0): 0.25 µg/mL (≈ 0.652 µM)
MIC ([1]; ATCCBAA2524, pH 6, read-out: MICs of MEPM, K. pneumoniae ATCC BAA-2524 (OXA-48), CAMHB pH6.0): 0.25 µg/mL (≈ 0.652 µM)
MIC ([1]; ATCCBAA2524, pH 6, read-out: MICs of MEPM, K. pneumoniae ATCC BAA-2524 (OXA-48), Human urine pH6.0): 0.25 µg/mL (≈ 0.652 µM)
MIC ([1]; ATCCBAA2524, pH 7, read-out: MICs of MEPM, K. pneumoniae ATCC BAA-2524 (OXA-48), Human urine pH7.0): 0.25 µg/mL (≈ 0.652 µM)
MIC ([1]; ATCCBAA2524, pH 7.2, read-out: MICs of MEPM, K. pneumoniae ATCC BAA-2524 (OXA-48), Standard condition (CAMHB pH7.2)): 1 µg/mL (≈ 2.61 µM)
MIC ([1]; ATCCBAA2524, pH 8, read-out: MICs of MEPM, K. pneumoniae ATCC BAA-2524 (OXA-48), CAMHB pH8.0): 4 µg/mL (≈ 10.4 µM)
MIC ([1]; ATCCBAA2524, pH 8, read-out: MICs of MEPM, K. pneumoniae ATCC BAA-2524 (OXA-48), Human urine pH8.0): 1 µg/mL (≈ 2.61 µM)
MIC ([1]; NCTC13439, pH 5, read-out: MICs of MEPM, K. pneumoniae NCTC13439 (VIM-1), CAMHB pH5.0): 0.12 µg/mL (≈ 0.313 µM)
MIC ([1]; NCTC13439, pH 5, read-out: MICs of MEPM, K. pneumoniae NCTC13439 (VIM-1), Human urine pH5.0): 0.12 µg/mL (≈ 0.313 µM)
MIC ([1]; NCTC13439, pH 6, read-out: MICs of MEPM, K. pneumoniae NCTC13439 (VIM-1), CAMHB pH6.0): 1 µg/mL (≈ 2.61 µM)
MIC ([1]; NCTC13439, pH 6, read-out: MICs of MEPM, K. pneumoniae NCTC13439 (VIM-1), Human urine pH6.0): 0.06 µg/mL (≈ 0.156 µM)
MIC ([1]; NCTC13439, pH 7, read-out: MICs of MEPM, K. pneumoniae NCTC13439 (VIM-1), Human urine pH7.0): 2 µg/mL (≈ 5.22 µM)
MIC ([1]; NCTC13439, pH 7.2, read-out: MICs of MEPM, K. pneumoniae NCTC13439 (VIM-1), Standard condition (CAMHB pH7.2)): 4 µg/mL (≈ 10.4 µM)
MIC ([1]; NCTC13439, pH 8, read-out: MICs of MEPM, K. pneumoniae NCTC13439 (VIM-1), CAMHB pH8.0): 4 µg/mL (≈ 10.4 µM)
MIC ([1]; NCTC13439, pH 8, read-out: MICs of MEPM, K. pneumoniae NCTC13439 (VIM-1), Human urine pH8.0): 1 µg/mL (≈ 2.61 µM)
MIC (Porphyromonas spp.; KUB No. 6663 Porphyromonas gingivalis): ≤ 0.03 µg/mL
MIC (Porphyromonas spp.; KUB No. 6666 Porphyromonas gingivalis): ≤ 0.03 µg/mL
MIC (Porphyromonas spp.; KUB No. 6667 Porphyromonas gingivalis): ≤ 0.03 µg/mL
MIC (Porphyromonas spp.; KUB No. 6668 Porphyromonas gingivalis): ≤ 0.03 µg/mL
MIC (Porphyromonas spp.; KUB No. 6669 Porphyromonas gingivalis): ≤ 0.03 µg/mL
MIC (Porphyromonas spp.; KUB No. 6670 Porphyromonas gingivalis): ≤ 0.03 µg/mL
MIC (Porphyromonas spp.; KUB No. 6671 Porphyromonas gingivalis): ≤ 0.03 µg/mL
MIC (Porphyromonas spp.; KUB No. 6672 Porphyromonas gingivalis): ≤ 0.03 µg/mL
